In US11312680B2, “Method for treating a patient having a colon cancer” (King Abdulaziz University, priority 2019, dated 2022):

What was measured:
N87 stomach cancer cells = assay: MTT cytotoxicity assay against N87 cells; type: cell-based, human
Method: Cytotoxicity of all the compounds against N87 cells was determined using MTT assay. Briefly, 25,000 cells suspended in 0.1 mL of cell culture media were added in each well of a 96-well plate. After allowing the cells to attach for 24 h, media was aspirated from all the wells, and different concentrations of anticancer compounds in cell culture media were added to the wells in triplicate. Six wells were incubated with drug free media, and used as control. 96 hours after the treatment, 25 μL of MTT solution (5 mg/mL in phosphate saline buffer, pH 7.4) was added to each well, and the plate was incubated for 4.5 hours at 37° C. in the incubator. After incubation, 100 μL of 10% SDS in 0.01 M hydrochloric acid was added to each well, and the plate was incubated overnight at 37° C. The next day absorbance was determined in each well at 590 nm using a plate reader. IC50 value of each compound was determined using GraphPad Prism.

MCF7 breast cancer cells = assay: MTT viability assay against MCF7 cells; type: cell-based, human
Method: (§1) The KAC compounds were evaluated for antiproliferative effect against HCT-116 and MCF7 cell lines using the MTT viability assay and to calculate the relative IC50 values for each compound. Cells were seeded in triplicate in 96-well plates at a density of 10×10^3 cells/mL in a total volume of 100 μL per well and allowed to adhere overnight. Cells were treated with various concentrations of tested KAC compounds or 0.1% of DMSO (vehicle) for 27 h. Then the medium was discarded and 100 μL per well of MTT (5 mg/mL in PBS) containing medium was added. After incubation at 37° C. for 3 h, the MTT-containing medium was replaced by DMSO (100 μL per well) to dissolve the formazon crystal and incubated for 10 min. Absorbance of the solution was measured by microplate reader at […]. The IC50 values were calculated according to the dose-dependent curves using GraphPad prism, version 5.0. All the experiments were repeated in at least three independent experiments.

[1] = system: HCT116 colon cancer cells; assay: MTT viability assay against HCT-116 cells; type: cell-based, human
Method: as §1

HCT-116 cells = assay: Cell cycle analysis of HCT-116 cells (propidium iodide flow cytometry); type: cell-based, human; conditions: for percentage of cells in G2/M phase: 24 h, control 9.0%; for cells in G2/M phase / apoptosis, population in the sub-G1 phase / apoptosis: 48 h; for apoptosis, population in the sub-G1 phase: control 0.9%; for cell cycle effect: HCT-116, 24 and 48 hours; for apoptosis: HCT-116, positive controls at 1 μM
Method: Flow cytometric analysis was used to determine DNA level in any given cell that has been stained with propidium iodide (PI). PI is a fluorescent DNA intercalating agent which binds stoichiometrically to nucleic acid. When bounded to DNA, its fluorescence intensity increases 20 fold (excitation 488 nm and emission 600 nm). As cells pass singly through a beam of light their cell cycle state is analyzed. The fluorescent intensity of DNA-bound PI correlates to the DNA content of the cell. This allows the cell population in G1 phase (diploid −2n), G2M phase (4n), or S phase (2n-4n) to be differentiated by plotting a histogram of the PI fluorescence versus cell counts (linear scale). G1 and G2M can be seen as distinct peaks, with the S phase shown as the population between these two peaks. Apoptotic cells are hypo-diploid (pre-G1) and have a low PI fluorescence due to DNA fragmentation [Riccardi, C.; Nicoletti, I., Analysis of apoptosis by propidium iodide staining and flow cytometry. Nature protocols 2006, 1 (3), 1458-1461].
To study cell cycle stage, adherent and detached cells were collected by trypsinization and centrifuged at 800×g for 15 min. Cells were washed twice with ice-cold PBS and fixed with slow addition of ice-cold 70% ethanol overnight at −20° C. Fixed cells were centrifuged at 800×g for 15 min and the pellet was re-suspended in 400 μL PBS and transferred to LP5 FACS tubes then stained with 50 μg/mL of PI, containing 50 μg/mL of DNase-free RNase A (to degraded any double strand RNA present), at 37° C. for 30 min. The DNA content of cells (10,000 cells/experimental group) was analyzed by flow cytometer at 488 nm using a FACSCalibur flow cytometer (BD Biosciences, San Jose, Calif.).
In general, G2/M cell cycle arrest is strongly associated with inhibition of tubulin polymerization. The effect of KX-01 analogue, KAC-3, was investigated with colon cancer HCT-116 cells by flow cytometry at two concentrations (5 μM and 10 μM) for 24 and 48 hours. […] The percentage of cells in G2/M phase after 24 h was 13.3% and 41.7% at concentrations of 5 μM and 10 μM, respectively compared to the control (9.0%) (see FIG. 9). […] The cell cycle analysis results for KAC-3 are typical for tubulin targeting agents, which characteristically cause G2/M blockade followed by apoptosis [Perez, E. A., Microtubule inhibitors: Differentiating tubulin-inhibiting agents based on mechanisms of action, clinical activity, and resistance. Molecular cancer therapeutics 2009, 8 (8), 2086-2095]. […] Cancer research and treatment: official journal of Korean Cancer Association 2017, 49 (3), 643-655; and Anbalagan, M.; Carrier, L.; Glodowski, S.; Hangauer, D.; Shan, B.; Rowan, B. G., KX-01, a novel Src kinase inhibitor directed toward the peptide substrate site, synergizes with tamoxifen in estrogen receptor a positive breast cancer. Breast cancer research and treatment 2012, 132 (2), 391-409]. […] Frontiers in pharmacology 2017, 8, 244].

HL-60 leukemia cells = assay: CellTiter-Blue cell viability assay against HL-60 cells; type: cell-based; conditions: Homo sapiens, HL-60, 48 h, leukemia cells HL60, CellTiter-Blue
Method: HL-60 cells were purchased from CLS Cell Line Service GmbH (Eppelheim, Germany) and cultured in Roswell Park Memorial Institute-1640 medium (RPMI-1640; Thermo Fisher Scientific, Inc; Waltham, Mass., USA) supplemented with 10% fetal bovine serum (FBS; Thermo Fisher Scientific) and ciprofloxacin (10 μg/ml; Cipla Limited; Mumbai, India), at 37° C. with 5% CO2 in a humidified incubator.
The CellTiter®-Blue Cell Viability assay was acquired from Promega Corporation (Madison, Wis., USA). Cell viability assay was performed as follows. The cells (10^4/well) were incubated with KAC-12 at a concentration gradient ranging from 0.01 to 100 μM, in 96-well plates for 48 h at 37° C. Subsequently, 20 μL of CellTiter®-Blue Cell Viability reagent was added to each well and incubated for an additional 2 h for the development of fluorescence. The fluorescence emission was measured at 590 nm using the SpectraMax® i3x Multi-Mode microplate reader (Molecular Devices, LLC; San Jose, Calif., USA.) and plotted against drug concentrations to determine the mean inhibitory concentration of KAC-12 producing 50% decrease in cell viability (IC50).

[2] = system: MDA-MB-231 and BT-549 and MDA-MB-468 cells; conditions: MDA-MB-231, BT-549, MDA-MB-468 cells; literature; cited from earlier work

IC50 (MCF7 breast cancer cells; Homo sapiens, MCF7, 27 h) [µM]	IC50 ([1]; Homo sapiens, HCT-116, 27 h) [µM]	Compound	IC50 (N87 stomach cancer cells; Homo sapiens, 96 h) [µM]	also measured
29.3	18.8	CC(=O)Nc1ccc(CC(=O)NCc2ccccc2)cc1 [KAC-01, 2-(4-acetamidophenyl)-N-benzylacetamide]	> 50	IC50 ([1]; 27 h): 18.8 µM
9.48	–	O=C(Cc1ccc(NC(=O)c2ccccc2C(=O)N2CCCCC2)cc1)NCc1ccccc1 [KAC-02, N-(4-(2-(benzylamino)-2-oxoethyl)phenyl)-2-(piperidine-1-carbonyl)benzamide]	–	–
3.5	4.8	O=C(Cc1ccc(NC(=O)c2ccccc2C(=O)N2CCOCC2)cc1)NCc1ccccc1 [KAC-03, N-(4-(2-(benzylamino)-2-oxoethyl)phenyl)-2-(morpholine-4-carbonyl)benzamide]	18.2	IC50 ([1]; 27 h): 4.76 µM; percentage of cells in G2/M phase (HCT-116 cells; HCT-116, 5 μM): 13.3%; cells in G2/M phase (HCT-116 cells; HCT-116, 5 μM): 30.7%; apoptosis, population in the sub-G1 phase (HCT-116 cells; HCT-116, 5 μM): 8.7%; percentage of cells in G2/M phase (HCT-116 cells; HCT-116, 10 μM): 41.7%; cells in G2/M phase (HCT-116 cells; HCT-116, 10 μM): 32.8%; apoptosis, population in the sub-G1 phase (HCT-116 cells; HCT-116, 10 μM): 11.6%; cell cycle effect (HCT-116 cells): significant G2/M arrest in a time- and concentration-dependent manner
> 50	–	CCN(CC)C(=O)c1ccccc1C(=O)Nc1ccc(CC(=O)NCc2ccccc2)cc1 [KAC-04, N^1-(4-(2-(benzylamino)-2-oxoethyl)phenyl)-N^2,N^2-diethylphthalamide]	> 50	–
44.2	> 50	O=C(Cc1ccc(NC(=O)c2ccccc2-c2ccccc2C(=O)N2CCCCC2)cc1)NCc1ccccc1 [KAC-05, N-(4-(2-(benzylamino)-2-oxoethyl)phenyl)-2′-(piperidine-1-carbonyl)-[1,1′-biphenyl]-2-carboxamide]	–	–
34.9	30.6	O=C(Cc1ccc(NC(=O)c2ccccc2-c2ccccc2C(=O)N2CCOCC2)cc1)NCc1ccccc1 [KAC-06, N-(4-(2-(benzylamino)-2-oxoethyl)phenyl)-2′-(morpholine-4-carbonyl)-[1,1′-biphenyl]-2-carboxamide]	> 50	–
> 50	–	CCN(CC)C(=O)c1ccccc1-c1ccccc1C(=O)Nc1ccc(CC(=O)NCc2ccccc2)cc1 [KAC-07, N^2-(4-(2-(benzylamino)-2-oxoethyl)phenyl)-N^2′,N^2′-diethyl-[1,1′-biphenyl]-2,2′-dicarboxamide]	> 50	–
2.6	19.7	O=C(Cc1ccc(NC(=O)c2ccccc2)cc1)NCc1ccccc1 [KAC-08, N-(4-(2-(benzylamino)-2-oxoethyl)phenyl)benzamide]	> 50	IC50 N87 (N87 stomach cancer cells; 96 hours): much weaker; IC50 (MCF7 breast cancer cells; 27 h): 2.63 µM; IC50 ([1]; 27 h): 19.7 µM
37	> 50	CCC(=O)Nc1ccc(CC(=O)NCc2ccccc2)cc1 [KAC-09, N-(4-(2-(benzylamino)-2-oxoethyl)phenyl)propionamide]	7.2	IC50 (N87 stomach cancer cells; 96 hours): 7.24 µM; IC50 (MCF7 breast cancer cells; 27 h): 37 µM
–	22.7	Cc1ccc(S(=O)(=O)Nc2ccc(CC(=O)NCc3ccccc3)cc2)cc1 [KAC-10, N-benzyl-2-(4-((4-methylphenyl)sulfonamido)phenyl)acetamide]	–	–
–	> 50	Nc1ccc(CC(=O)NCc2ccccc2)cc1 [KAC-14, 2-(4-aminophenyl)-N-benzylacetamide]	> 50	IC50 HCT116 ([1]; 27 h): did not affect any of the tested cell lines; IC50 (HL-60 leukemia cells): > 50 µM
–	> 50	COc1ccc(CNC(=O)Cc2ccc(NC(=O)c3cccc(Cl)c3)cc2)cc1 [KAC-15, 3-Chloro-N-(4-(2-((4-methoxybenzyl)amino)-2-oxoethyl)phenyl)benzamide]	–	–
–	> 50	O=C(Cc1ccc(NC(=O)c2cccc(Cl)c2)cc1)NCc1ccc(F)cc1 [KAC-16, 3-Chloro-N-(4-(2-((4-fluorobenzyl)amino)-2-oxoethyl)phenyl)benzamide]	–	–
–	25.9	O=C(Cc1ccc(NC(=O)c2cccc(Cl)c2)cc1)NCCc1ccccc1 [KAC-17, 3-Chloro-N-(4-(2-oxo-2-(phenethylamino)ethyl)phenyl)benzamide]	–	–
–	23.9	O=C(Cc1ccc(NC(=O)c2cccc(Cl)c2)cc1)NCc1ccco1 [KAC-18, 3-Chloro-N-(4-(2-((furan-2-ylmethyl)amino)-2-oxoethyl)phenyl)benzamide]	–	–
–	–	O=C(Cc1ccc(-c2ccc(OCCN3CCOCC3)cc2)cn1)NCc1ccccc1 [KX-01]	–	cell cycle effect [2]: induced significant G2M phase arrest
–	–	CC(=O)O[C@H]1C(=O)[C@@]2(C)[C@H]([C@H](OC(=O)c3ccccc3)[C@]3(O)C[C@H](OC(=O)[C@H](O)[C@@H](NC(=O)c4ccccc4)c4ccccc4)C(C)=C1C3(C)C)[C@]1(OC(C)=O)CO[C@@H]1C[C@@H]2O [Paclitaxel, reference compound]	–	cell cycle effect (HCT-116 cells): no significant difference in the other cell cycle phases; apoptosis (HCT-116 cells): 7.7%
–	–	Cc1ccc(NC(=O)c2ccc(CN3CCN(C)CC3)cc2)cc1Nc1nccc(-c2cccnc2)n1 [imatinib, reference compound]	–	cell cycle effect (HCT-116 cells): no significant difference in the other cell cycle phases; apoptosis (HCT-116 cells): 6.4%
